ChEMBL document CHEMBL3046831, “Novel PCU cage diol peptides as potential targets against wild-type CSA HIV-1 protease: synthesis, biological screening and molecular modelling studies” (Med Chem Res, 2013)

How the values were obtained:
[1] = biological target: T1, Protease (Human immunodeficiency virus 1, UniProt Q9YQ12); assay: Inhibition of wild type C-South African Human immunodeficiency virus 1 protease using chromogenic peptide H-1048 as substrate by UV spectrophotometric analysis; design: species or system C-SA
[2] = biological target: T1, Protease; assay: Inhibition of wild type C-South African Human immunodeficiency virus 1 protease; design: species or system C-SA
[3] = biological target: T1, Protease; assay: Inhibition of Human immunodeficiency virus 1 protease

T1 sequence (Q9YQ12 whole entry): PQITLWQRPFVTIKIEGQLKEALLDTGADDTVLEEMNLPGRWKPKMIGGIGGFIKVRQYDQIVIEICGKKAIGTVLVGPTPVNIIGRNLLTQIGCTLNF

O=C(CC1(O)C2C3CC4C5C3C1C5C(O)(CC(=O)N[C@@H](Cc1c[nH]cn1)C(=O)O)C42)N[C@@H](Cc1c[nH]cn1)C(=O)O (some centres not stated) showed an IC50 [1] greater than 60 µM.
In the case of CC(C)[C@H](NC(=O)CC1(O)C2C3CC4C5C3C1C5C(O)(CC(=O)N[C@H](C(=O)O)C(C)C)C42)C(=O)O (some centres not stated), the IC50 [1] is reported as 10 µM.
Compound O=C(CC1(O)C2C3CC4C5C3C1C5C(O)(CC(=O)N[C@@H](Cc1ccc(O)cc1)C(=O)O)C42)N[C@@H](Cc1ccc(O)cc1)C(=O)O (some centres not stated) has an IC50 [1] of 10 µM.
O=C(CC1(O)C2C3CC4C5C3C1C5C(O)(CC(=O)N[C@@H](Cc1c[nH]c3ccccc13)C(=O)O)C42)N[C@@H](Cc1c[nH]c2ccccc12)C(=O)O (some centres not stated) showed an IC50 [1] of 5 µM.
O=C(O)[C@@H]1CCCN1C(=O)CC1(O)C2C3CC4C5C3C1C5C(O)(CC(=O)N1CCC[C@H]1C(=O)O)C42 (some centres not stated) gave an IC50 [1] greater than 60 µM.
CC[C@H](C)[C@H](NC(=O)[C@H](C)NC(=O)[C@H](CCC(=O)O)NC12NC(=O)C3(O)C4C5CC(C6C5C3C61)C42)C(=O)N[C@@H](CO)C(=O)O (some centres not stated) gave an IC50 [2] of 78 nM.
Compound NC(=O)[C@@H]1CCCN1C(=O)CC1(O)C2C3CC4C5C3C1C5C(O)(CC(=O)N1CCC[C@H]1C(N)=O)C42 (some centres not stated) has an IC50 [1] greater than 60 µM.
O=C(CC1(O)C2C3CC4C5C3C1C5C(O)(CC(=O)N[C@H](C(=O)O)c1ccccc1)C42)N[C@H](C(=O)O)c1ccccc1 (some centres not stated) showed an IC50 [1] of 5 µM.
Work on O=C(CC1(O)C2C3CC4C5C3C1C5C(O)(CC(=O)N[C@@H](Cc1ccccc1)C(=O)O)C42)N[C@@H](Cc1ccccc1)C(=O)O (some centres not stated) yielded an IC50 [1] greater than 60 µM.
For Nc1cccc(CN2C(=O)N(Cc3cccc(N)c3)[C@H](Cc3ccccc3)[C@H](O)[C@@H](O)[C@H]2Cc2ccccc2)c1 [MOZENAVIR], the Ki [3] was 0.3 nM.
Compound O=C(O)CN(Cc1ccccc1)C(=O)CC1(O)C2C3CC4C5C3C1C5C(O)(CC(=O)N(CC(=O)O)Cc1ccccc1)C42 (configuration not stated) has an IC50 [1] greater than 60 µM.
CC(C)[C@H](NC12OC3(O)C4C5CC(C6C5C3C61)C42)C(=O)N[C@@H](C)C(=O)O (some centres not stated) was tested, and the IC50 [2] was 600 nM.
